Each substance was assayed on DMPK (assay: DMPK knockdown by transfected antisense oligonucleotides in DM1 C15 myotubes at 0.5 nM and 50 nM). Conditions: 0.5 nM oligonucleotide, 72 hours.
Assay type: cell-based
Summary of the method: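 Seven-day-differentiated DM1 C15 myotubes transfected (Lipofectamine MessengerMax) with each oligonucleotide at 0.5 nM or 50 nM final, biological triplicates. After 72 h, DMPK mRNA quantified by qPCR, expressed relative to vehicle-only transfection set to 1.00.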
“404 (CUCUGCCUCGCGUAGUUGAC; chemistry not given here) [compound 404]” was tested, and the “Percent DMPK Reduction” value was 16.61%. In the case of “405 (CUUUGGGCAGAUGGAGGGCC; chemistry not given here) [compound 405]”, the “Percent DMPK Reduction” value was 28.06%. For “406 (ACAGGUAGUUCUCAUCCUGG; chemistry not given here) [compound 406]”, the “Percent DMPK Reduction” value was 20.51%. For “407 (CCAAACUUGCTCAGCAGUGU; chemistry not given here) [compound 407]”, the “Percent DMPK Reduction” value was 23.64%. “408 (UCGGGUUUGAUGUCCCUGUG; chemistry not given here) [compound 408]” was tested, and the “Percent DMPK Reduction” value was 22.49%. For “409 (GGCUUGCUGCCUUCCCAGGC; chemistry not given here) [compound 409]”, the “Percent DMPK Reduction” value was -6.32%. With “410 (UACAGGUAGUUCUCAUCCUG; chemistry not given here) [compound 410]” the “Percent DMPK Reduction” value was 19.83%. In the case of “411 (UUGCCCAUCCACGUCAGGGC; chemistry not given here) [compound 411]”, the “Percent DMPK Reduction” value was 22.23%. “412 (AGGUACAGGUAGUUCUCAUC; chemistry not given here) [compound 412]” was tested, and the “Percent DMPK Reduction” value was 18.68%. With “413 (GACAGACAAUAAAUACCGAG; chemistry not given here) [compound 413]” the “Percent DMPK Reduction” value was 18.26%. “414 (UAGAACAUUUCAUAGGCGAA; chemistry not given here) [compound 414]” was tested, and the “Percent DMPK Reduction” value was 20.23%. “415 (AGGGCCUUUUAUUCGCGAGG; chemistry not given here) [compound 415]” was tested, and the “Percent DMPK Reduction” value was 13.63%. With “416 (GCCUCGCGUAGUUGACUGGC; chemistry not given here) [compound 416]” the “Percent DMPK Reduction” value was 12.98%. For “417 (CCAGCAGGAUGUUGUCGGGU; chemistry not given here) [compound 417]”, the “Percent DMPK Reduction” value was 40.29%. For “418 (GUAGUUGACUGGCGAAGUUC; chemistry not given here) [compound 418]”, the “Percent DMPK Reduction” value was 7.50%. For “419 (UGCGGAUGGCCUCCAUCUCC; chemistry not given here) [compound 419]”, the “Percent DMPK Reduction” value was 40.15%. For “420 (ACAAUCUCCGCCAGGUAGAA; chemistry not given here) [compound 420]”, the “Percent DMPK Reduction” value was 19.09%. “421 (GCGAAUACACCCAGCGCCCA; chemistry not given here) [compound 421]” was tested, and the “Percent DMPK Reduction” value was 6.94%. In the case of “422 (GUAGUUCUCAUCCUGGAAGG; chemistry not given here) [compound 422]”, the “Percent DMPK Reduction” value was 7.43%. With “423 (GGCUCAGGCUCUGCCGGGUG; chemistry not given here) [compound 423]” the “Percent DMPK Reduction” value was 7.38%.

Same assay, conditions: 0.5 nM oligonucleotide, 72 hours, relative to vehicle control = 1.00
With “404 (CUCUGCCUCGCGUAGUUGAC; chemistry not given here) [compound 404]” the “Normalized DMPK Remaining” value was 0.83. In the case of “405 (CUUUGGGCAGAUGGAGGGCC; chemistry not given here) [compound 405]”, the “Normalized DMPK Remaining” value was 0.72. In the case of “406 (ACAGGUAGUUCUCAUCCUGG; chemistry not given here) [compound 406]”, the “Normalized DMPK Remaining” value was 0.79. In the case of “407 (CCAAACUUGCTCAGCAGUGU; chemistry not given here) [compound 407]”, the “Normalized DMPK Remaining” value was 0.76. In the case of “408 (UCGGGUUUGAUGUCCCUGUG; chemistry not given here) [compound 408]”, the “Normalized DMPK Remaining” value was 0.78. In the case of “409 (GGCUUGCUGCCUUCCCAGGC; chemistry not given here) [compound 409]”, the “Normalized DMPK Remaining” value was 1.06. In the case of “410 (UACAGGUAGUUCUCAUCCUG; chemistry not given here) [compound 410]”, the “Normalized DMPK Remaining” value was 0.80. For “411 (UUGCCCAUCCACGUCAGGGC; chemistry not given here) [compound 411]”, the “Normalized DMPK Remaining” value was 0.78. With “412 (AGGUACAGGUAGUUCUCAUC; chemistry not given here) [compound 412]” the “Normalized DMPK Remaining” value was 0.81. For “413 (GACAGACAAUAAAUACCGAG; chemistry not given here) [compound 413]”, the “Normalized DMPK Remaining” value was 0.82. With “414 (UAGAACAUUUCAUAGGCGAA; chemistry not given here) [compound 414]” the “Normalized DMPK Remaining” value was 0.80. “415 (AGGGCCUUUUAUUCGCGAGG; chemistry not given here) [compound 415]” was tested, and the “Normalized DMPK Remaining” value was 0.86. In the case of “416 (GCCUCGCGUAGUUGACUGGC; chemistry not given here) [compound 416]”, the “Normalized DMPK Remaining” value was 0.87. “417 (CCAGCAGGAUGUUGUCGGGU; chemistry not given here) [compound 417]” was tested, and the “Normalized DMPK Remaining” value was 0.60. For “418 (GUAGUUGACUGGCGAAGUUC; chemistry not given here) [compound 418]”, the “Normalized DMPK Remaining” value was 0.93. With “419 (UGCGGAUGGCCUCCAUCUCC; chemistry not given here) [compound 419]” the “Normalized DMPK Remaining” value was 0.60. For “420 (ACAAUCUCCGCCAGGUAGAA; chemistry not given here) [compound 420]”, the “Normalized DMPK Remaining” value was 0.81. For “421 (GCGAAUACACCCAGCGCCCA; chemistry not given here) [compound 421]”, the “Normalized DMPK Remaining” value was 0.93. In the case of “422 (GUAGUUCUCAUCCUGGAAGG; chemistry not given here) [compound 422]”, the “Normalized DMPK Remaining” value was 0.93. For “423 (GGCUCAGGCUCUGCCGGGUG; chemistry not given here) [compound 423]”, the “Normalized DMPK Remaining” value was 0.93.

Same assay, conditions: 50 nM oligonucleotide, 72 hours
With “404 (CUCUGCCUCGCGUAGUUGAC; chemistry not given here) [compound 404]” the “Percent DMPK Reduction” value was 91.21%. In the case of “405 (CUUUGGGCAGAUGGAGGGCC; chemistry not given here) [compound 405]”, the “Percent DMPK Reduction” value was 67.50%. With “406 (ACAGGUAGUUCUCAUCCUGG; chemistry not given here) [compound 406]” the “Percent DMPK Reduction” value was 85.36%. “407 (CCAAACUUGCTCAGCAGUGU; chemistry not given here) [compound 407]” was tested, and the “Percent DMPK Reduction” value was 57.70%. “408 (UCGGGUUUGAUGUCCCUGUG; chemistry not given here) [compound 408]” was tested, and the “Percent DMPK Reduction” value was 57.16%. For “409 (GGCUUGCUGCCUUCCCAGGC; chemistry not given here) [compound 409]”, the “Percent DMPK Reduction” value was 48.15%. In the case of “410 (UACAGGUAGUUCUCAUCCUG; chemistry not given here) [compound 410]”, the “Percent DMPK Reduction” value was 72.51%. For “411 (UUGCCCAUCCACGUCAGGGC; chemistry not given here) [compound 411]”, the “Percent DMPK Reduction” value was 67.15%. With “412 (AGGUACAGGUAGUUCUCAUC; chemistry not given here) [compound 412]” the “Percent DMPK Reduction” value was 58.92%. In the case of “413 (GACAGACAAUAAAUACCGAG; chemistry not given here) [compound 413]”, the “Percent DMPK Reduction” value was 38.07%. For “414 (UAGAACAUUUCAUAGGCGAA; chemistry not given here) [compound 414]”, the “Percent DMPK Reduction” value was 43.67%. In the case of “415 (AGGGCCUUUUAUUCGCGAGG; chemistry not given here) [compound 415]”, the “Percent DMPK Reduction” value was 66.43%. In the case of “416 (GCCUCGCGUAGUUGACUGGC; chemistry not given here) [compound 416]”, the “Percent DMPK Reduction” value was 91.10%. For “417 (CCAGCAGGAUGUUGUCGGGU; chemistry not given here) [compound 417]”, the “Percent DMPK Reduction” value was 89.59%. In the case of “418 (GUAGUUGACUGGCGAAGUUC; chemistry not given here) [compound 418]”, the “Percent DMPK Reduction” value was 45.33%. In the case of “419 (UGCGGAUGGCCUCCAUCUCC; chemistry not given here) [compound 419]”, the “Percent DMPK Reduction” value was 84.43%. With “420 (ACAAUCUCCGCCAGGUAGAA; chemistry not given here) [compound 420]” the “Percent DMPK Reduction” value was 49.75%. In the case of “421 (GCGAAUACACCCAGCGCCCA; chemistry not given here) [compound 421]”, the “Percent DMPK Reduction” value was 69.72%. With “422 (GUAGUUCUCAUCCUGGAAGG; chemistry not given here) [compound 422]” the “Percent DMPK Reduction” value was 55.09%. In the case of “423 (GGCUCAGGCUCUGCCGGGUG; chemistry not given here) [compound 423]”, the “Percent DMPK Reduction” value was 65.82%.

Same assay, conditions: 50 nM oligonucleotide, 72 hours, relative to vehicle control = 1.00
In the case of “404 (CUCUGCCUCGCGUAGUUGAC; chemistry not given here) [compound 404]”, the “Normalized DMPK Remaining” value was 0.09. With “405 (CUUUGGGCAGAUGGAGGGCC; chemistry not given here) [compound 405]” the “Normalized DMPK Remaining” value was 0.33. With “406 (ACAGGUAGUUCUCAUCCUGG; chemistry not given here) [compound 406]” the “Normalized DMPK Remaining” value was 0.15. “407 (CCAAACUUGCTCAGCAGUGU; chemistry not given here) [compound 407]” was tested, and the “Normalized DMPK Remaining” value was 0.42. In the case of “408 (UCGGGUUUGAUGUCCCUGUG; chemistry not given here) [compound 408]”, the “Normalized DMPK Remaining” value was 0.43. In the case of “409 (GGCUUGCUGCCUUCCCAGGC; chemistry not given here) [compound 409]”, the “Normalized DMPK Remaining” value was 0.52. For “410 (UACAGGUAGUUCUCAUCCUG; chemistry not given here) [compound 410]”, the “Normalized DMPK Remaining” value was 0.27. With “411 (UUGCCCAUCCACGUCAGGGC; chemistry not given here) [compound 411]” the “Normalized DMPK Remaining” value was 0.33. With “412 (AGGUACAGGUAGUUCUCAUC; chemistry not given here) [compound 412]” the “Normalized DMPK Remaining” value was 0.41. With “413 (GACAGACAAUAAAUACCGAG; chemistry not given here) [compound 413]” the “Normalized DMPK Remaining” value was 0.62. In the case of “414 (UAGAACAUUUCAUAGGCGAA; chemistry not given here) [compound 414]”, the “Normalized DMPK Remaining” value was 0.56. For “415 (AGGGCCUUUUAUUCGCGAGG; chemistry not given here) [compound 415]”, the “Normalized DMPK Remaining” value was 0.34. In the case of “416 (GCCUCGCGUAGUUGACUGGC; chemistry not given here) [compound 416]”, the “Normalized DMPK Remaining” value was 0.09. With “417 (CCAGCAGGAUGUUGUCGGGU; chemistry not given here) [compound 417]” the “Normalized DMPK Remaining” value was 0.10. “418 (GUAGUUGACUGGCGAAGUUC; chemistry not given here) [compound 418]” was tested, and the “Normalized DMPK Remaining” value was 0.55. For “419 (UGCGGAUGGCCUCCAUCUCC; chemistry not given here) [compound 419]”, the “Normalized DMPK Remaining” value was 0.16. In the case of “420 (ACAAUCUCCGCCAGGUAGAA; chemistry not given here) [compound 420]”, the “Normalized DMPK Remaining” value was 0.50. For “421 (GCGAAUACACCCAGCGCCCA; chemistry not given here) [compound 421]”, the “Normalized DMPK Remaining” value was 0.30. For “422 (GUAGUUCUCAUCCUGGAAGG; chemistry not given here) [compound 422]”, the “Normalized DMPK Remaining” value was 0.45. With “423 (GGCUCAGGCUCUGCCGGGUG; chemistry not given here) [compound 423]” the “Normalized DMPK Remaining” value was 0.34.
